Values after ≈ are worked out from the molar mass of the structure shown. Where two headings read alike, the source gives them in different places.
Columns and labels:
[1] = system: human monocytes/macrophages; test: MTS staining for macrophage viability (cytotoxicity); assay type: cell-based
Description: Anti-HIV efficacy evaluation in human monocyte/macrophages. Following 6 to 14 days in culture, the monocyte/macrophages cultures were washed 3 times to remove any non-adherent cells, and serially diluted test compounds were added followed by the addition of a pre-titered amount of HIV. Cultures were washed a final time by media removal 24 h post infection, fresh compound added and the cultures continued for an additional six days. Assays were performed using a standardized microtiter plate format developed by the Infectious Disease Research Department of Southern Research Institute. […] At assay termination, virus replication was measured by collecting cell-free supernatant samples, which were analyzed for HIV p24 antigen content using a commercially available p24 ELISA assay (Coulter). Following removal of supernatant samples, compound cytotoxicity was measured by addition of MTS to the plates for determination of cell viability. […]
MTS staining for macrophage viability to measure cytotoxicity. At assay termination, the assay plates were stained with the soluble tetrazolium-based dye MTS (CellTiter Reagent, Promega) to determine cell viability and quantify compound cytotoxicity. MTS is metabolized by the mitochondrial enzymes of metabolically active cells to yield a soluble formazan product, allowing the rapid quantitative analysis of cell viability and compound cytotoxicity. […]

Hepatitis B Virus = test: HepG2 2.2.15 antiviral assay (HBV DNA, TaqMan PCR); assay type: cell-based, Hepatitis B (HBV); conditions: HepG2 2.2.15 cells
Description: Compounds SA-101A and SA-101B were evaluated for effect on Hepatitis B Virus replications using a cell culture based HBV replication system.
Compound preparation. The compounds were prepared in powder form (˜1 mg) and solubilized in DMSO prior to use. Compound 3TC was used as positive antiviral control.
HepG2 2.2.15 Antiviral Assay. The assay developed is similar to that described ion the literature (Korba et al., 1991, Antiviral Res. 15: 217-228; Korba et al., 1992, Antiviral Res. 19: 55-70) with the exception that viral DNA detection and quantification have been improved and simplified (Buckwold et al., 2004, Antiviral Res. 61(1): 57-62). Briefly, HepG2-2.2.15 cells are plated in 96-well microtiter plates. […] Six days following the initial administration of the test compound, the cell culture supernatant is collected, treated with pronase and DNAse and then used in a real-time quantitative TaqMan PCR assay. The PCR-amplified HBV DNA is detected in real-time by monitoring increases in fluorescence signals that result from the exonucleolytic degradation of a quenched fluorescent probe molecule that hybridizes to the amplified HBV DNA. […] Antiviral activity is calculated from the reduction in HBV DNA levels (IC50). […] The therapeutic index (TI) is calculated as TC50/IC50.

HepG2-2.2.15 cells = test: Dye uptake cell viability in HepG2-2.2.15 cells; assay type: cell-based; conditions: at the concentrations evaluated
Description: HepG2 2.2.15 Antiviral Assay. The assay developed is similar to that described ion the literature (Korba et al., 1991, Antiviral Res. 15: 217-228; Korba et al., 1992, Antiviral Res. 19: 55-70) with the exception that viral DNA detection and quantification have been improved and simplified (Buckwold et al., 2004, Antiviral Res. 61(1): 57-62). Briefly, HepG2-2.2.15 cells are plated in 96-well microtiter plates. Only the interior wells are utilized to reduce “edge effects” observed during cell culture; the exterior wells are filled with complete medium to help minimize sample evaporation. After 16-24 hours the confluent monolayer of HepG2-2.2.15 cells is washed and the medium is replaced with complete medium containing various concentrations of a test compound in triplicate. […] Six days following the initial administration of the test compound, the cell culture supernatant is collected, treated with pronase and DNAse and then used in a real-time quantitative TaqMan PCR assay. The PCR-amplified HBV DNA is detected in real-time by monitoring increases in fluorescence signals that result from the exonucleolytic degradation of a quenched fluorescent probe molecule that hybridizes to the amplified HBV DNA. […] Antiviral activity is calculated from the reduction in HBV DNA levels (IC50). […] The therapeutic index (TI) is calculated as TC50/IC50.

Structure (SMILES)	TC50 ([1]; 40% Human AB serum) [µg/mL]	EC50 (inhibition of HBV) (Hepatitis B Virus)	Cytotoxicity (HepG2-2.2.15 cells)	TC50 [1] [µg/mL]
CC(=O)OC12CC(C)C3(O)C(C=C(COC(=O)CCC(=O)O)CC4(O)C(=O)C(C)=CC43)C1C2(C)C (stereo not drawn) [SA-101B, Prostratin Succinate]	21.0	did not achieve EC50 values	no cytotoxicity	
CC(=O)O[C@@]12C[C@@H](C)[C@@]3(O)[C@@H](C=C(CO)C[C@]4(O)C(=O)C(C)=C[C@@H]34)[C@@H]1C2(C)C [SA-101A, 12-deoxyphorbol 13-acetate]		did not achieve EC50 values	no cytotoxicity	17.3 (≈ 44.3 µM)
